Values after ≈ are worked out from the molar mass of the structure shown. Values joined by “and” are separate entries in the source; they are usually repeats but may differ in a detail not shown here. Equal entries are not always repeated. Each block holds one molecule with its values, some of them ahead of it.
Columns and labels:
Test in all cases: ≥ marks a high value that may be exact or a test limit, other limits are often not marked, values filed in µg/mL are converted to µM
[1] = system: Pseudomonas aeruginosa ATCC 27853
Escherichia coli BW25113 = system: Escherichia coli BW25113
[2] = system: Klebsiella pneumoniae ATCC 700603
Escherichia coli = system: Escherichia coli
[3] = system: Acinetobacter baumannii ATCC 19606
[4] = system: Escherichia coli BW25113 ΔsbmA
[5] = system: Staphylococcus aureus ATCC 25923
[6] = system: Pseudomonas aeruginosa PAO1
[7] = system: Pseudomonas aeruginosa PA214
[8] = system: Pseudomonas aeruginosa PA287
Escherichia coli K-12 = system: Escherichia coli K-12
[9] = system: Staphylococcus aureus K147
[10] = system: Pseudomonas aeruginosa H744
[11] = system: Staphylococcus epidermidis
[12] = system: Pseudomonas aeruginosa K799
[13] = system: Acinetobacter calcoaceticus ATCC 23055
[14] = system: Pseudomonas aeruginosa H374
[15] = system: Pseudomonas aeruginosa H103
[16] = system: Listeria monocytogenes NCTC 7973
[17] = system: Streptococcus pyogenes ATCC 19615
[18] = system: Pseudomonas aeruginosa Z61
[19] = system: Staphylococcus haemolyticus
[20] = system: Enterococcus faecalis ATCC 29212
[21] = system: Salmonella enterica subsp. enterica serovar Typhimurium ATCC 14028s
[22] = system: Pseudomonas aeruginosa H547
[23] = system: Pseudomonas aeruginosa H187
[24] = system: Enterobacter cloacae ATCC 13047
Candida albicans CAN105 = system: Candida albicans CAN105
Escherichia coli UB1005 = system: Escherichia coli UB1005
[25] = system: Burkholderia cepacia ATCC 25416
Escherichia coli O111:B4 = system: Escherichia coli O111:B4
[26] = system: Stenotrophomonas maltophilia ATCC 13637
Corynebacterium xerosis = system: Corynebacterium xerosis
[27] = system: Staphylococcus aureus SAP 0017
[28] = system: Enterococcus faecium ATCC 700221
[29] = system: Pseudomonas aeruginosa ATCC 19660
[30] = system: Streptococcus pneumoniae ATCC 49619
[31] = system: Staphylococcus aureus ATCC 33591
[32] = system: Acinetobacter baumannii ATCC 17978D-5
[33] = system: Klebsiella aerogenes ATCC 13048
[34] = system: Staphylococcus epidermidis ATCC 51625
[35] = system: Bacillus subtilis KCTC 3068
[36] = system: Escherichia coli KCTC 1682
[37] = system: Salmonella typhimurium KCTC 1926
[38] = system: Acinetobacter baumannii CCARM 12035
[39] = system: Escherichia coli CCARM 1229
[40] = system: Pseudomonas aeruginosa CCARM 2095
[41] = system: Staphylococcus aureus KCTC 1621
[42] = system: Pseudomonas aeruginosa KCTC 1637
[43] = system: Salmonella typhimurium CCARM 8009
[44] = system: Enterococcus faecalis KCTC 2011

Compound: C[C@H](NC(=O)[C@H](C)NC(=O)[C@H](CCCCN)NC(=O)[C@H](Cc1ccccc1)NC(=O)[C@H](C)NC(=O)[C@H](CCCCN)NC(=O)[C@H](C)NC(=O)[C@H](Cc1c[nH]c2ccccc12)NC(=O)[C@H](C)NC(=O)[C@H](CCCCN)NC(=O)[C@H](C)NC(=O)[C@H](Cc1ccccc1)NC(=O)[C@H](C)NC(=O)[C@H](C)NC(=O)[C@H](CCCCN)NC(=O)[C@H](CCCCN)NC(=O)[C@@H](N)CCCCN)C(N)=O [KKKAAFAKAWAKAFKAA]
- MIC [6]: 50 µM (≈ 91.8 µg/mL)
- MIC [7]: ≥ 50 µM
- MIC [8]: ≥ 50 µM
- MIC (Escherichia coli K-12): 25 µM (≈ 45.9 µg/mL)

Compound: CC[C@H](C)[C@H](NC(=O)[C@H](CC(C)C)NC(=O)[C@H](C)NC(=O)[C@@H]1CCCN1C(=O)[C@H](CC(C)C)NC(=O)CNC(=O)[C@@H](NC(=O)[C@@H](NC(=O)[C@H](CC(C)C)NC(=O)[C@@H](NC(=O)[C@H](CCCCN)NC(=O)[C@H](CCCCN)NC(=O)[C@@H](NC(=O)[C@H](C)NC(=O)[C@@H](NC(=O)[C@@H](NC(=O)[C@H](CC(C)C)NC(=O)[C@H](CCCCN)NC(=O)[C@H](CCCCN)NC(=O)[C@@H](NC(=O)[C@H](Cc1ccccc1)NC(=O)[C@H](CO)NC(=O)[C@H](CCCCN)NC(=O)[C@H](Cc1c[nH]c2ccccc12)NC(=O)[C@@H](N)CCCCN)[C@@H](C)CC)[C@@H](C)O)[C@@H](C)O)C(C)C)C(C)C)[C@@H](C)O)[C@@H](C)O)C(=O)N[C@@H](CO)C(=O)O [KWKSFIKKLTTAVKKVLTTGLPALIS]
- MIC [9]: 11.1 µM (≈ 32 µg/mL)
- MIC [1]: 5.57 µM (≈ 16 µg/mL)
- MIC [10]: 0.696 µM (≈ 2 µg/mL)
- MIC [11]: 5.57 µM (≈ 16 µg/mL)
- MIC [12]: 2.09 µM (≈ 6 µg/mL)
- MIC [13]: 1.39 µM (≈ 4 µg/mL)
- MIC [14]: 0.696 µM (≈ 2 µg/mL)
- MIC [15]: 1.39 µM (≈ 4 µg/mL)
- MIC [16]: 1.39 µM (≈ 4 µg/mL)
- MIC [17]: 2.79 µM (≈ 8 µg/mL)
- MIC [18]: 1.04 µM (≈ 3 µg/mL)
- MIC [19]: 2.79 µM and 5.57 µM
- MIC [5]: 2.79 µM (≈ 8 µg/mL)
- MIC [20]: 22.3 µM (≈ 64 µg/mL)
- MIC [21]: 0.696 µM (≈ 2 µg/mL)
- MIC [22]: 0.696 µM (≈ 2 µg/mL)
- MIC [23]: 5.57 µM (≈ 16 µg/mL)
- MIC [24]: 0.696 µM (≈ 2 µg/mL)
- MIC (Candida albicans CAN105): 11.1 µM (≈ 32 µg/mL)
- MIC (Escherichia coli UB1005): 0.696 µM (≈ 2 µg/mL)
- MIC [25]: 22.3 µM (≈ 64 µg/mL)
- MIC (Escherichia coli O111:B4): 0.696 µM (≈ 2 µg/mL)
- MIC [26]: 1.04 µM (≈ 3 µg/mL)
- MIC (Corynebacterium xerosis): 0.696 µM (≈ 2 µg/mL)
- MIC [27]: 2.79 µM (≈ 8 µg/mL)

Compound: CC[C@H](C)[C@H](NC(=O)[C@H](CCCCN)NC(=O)[C@@H]1CCCN1C(=O)[C@@H]1CCCN1C(=O)[C@H](CC(C)C)NC(=O)[C@H](CCCCN)NC(=O)[C@@H]1CCCN1C(=O)[C@@H]1CCCN1C(=O)[C@H](Cc1ccccc1)NC(=O)[C@H](Cc1ccccc1)NC(=O)[C@@H]1CCCN1C(=O)[C@@H]1CCCN1C(=O)[C@@H]1CCCN1C(=O)[C@H](CCCCN)NC(=O)[C@@H]1CCCN1C(=O)[C@H](CCCCN)NC(=O)[C@@H]1CCCN1C(=O)[C@H](CC(C)C)NC(=O)[C@H](Cc1ccc(O)cc1)NC(=O)[C@@H]1CCCN1C(=O)[C@@H]1CCCN1C(=O)[C@H](CCCCN)NC(=O)[C@@H]1CCCN1C(=O)[C@H](CCCCN)NC(=O)[C@H](CCCCN)NC(=O)[C@@H](N)CCCCN)C(=O)O [KKKPKPPYLPKPKPPPFFPPKLPPKI]
- MIC [28]: 21.3 µM (≈ 64 µg/mL)
- MIC [1]: > 21.3 µM
- MIC [29]: 21.3 µM (≈ 64 µg/mL)
- MIC [30]: 21.3 µM (≈ 64 µg/mL)
- MIC [31]: 21.3 µM (≈ 64 µg/mL)
- MIC [32]: 21.3 µM (≈ 64 µg/mL)
- MIC [33]: 21.3 µM (≈ 64 µg/mL)
- MIC [34]: 21.3 µM (≈ 64 µg/mL)

Further lines, results first:

- MIC [1]: 64 µM (≈ 148 µg/mL)
- MIC (Escherichia coli BW25113): 4 µM (≈ 9.24 µg/mL)
- MIC [2]: 24 µM (≈ 55.5 µg/mL)
- MIC (Escherichia coli): 2.83 µM (≈ 6.54 µg/mL)
- MIC [3]: 8 µM (≈ 18.5 µg/mL)
- MIC [4]: 8 µM (≈ 18.5 µg/mL)
- MIC [5]: > 64 µM
Compound: CC[C@H](C)[C@H](NC(=O)[C@@H]1CCCN1C(=O)[C@H](Cc1c[nH]c2ccccc12)NC(=O)[C@H](CCCN=C(N)N)NC(=O)[C@H](Cc1ccccc1)NC(=O)[C@@H](N)CCCN=C(N)N)C(=O)N[C@@H](CCCN=C(N)N)C(=O)N[C@@H](CCCN=C(N)N)C(=O)N1CCC[C@H]1C(=O)N1CCC[C@H]1C(=O)N[C@H](C(=O)N[C@@H](CCCN=C(N)N)C(=O)N1CCC[C@H]1C(=O)N1CCC[C@H]1C(=O)N[C@@H](Cc1ccccc1)C(=O)N[C@@H](Cc1ccc(O)cc1)C(=O)N[C@@H](CCCN=C(N)N)C(=O)O)[C@@H](C)CC [RFRWPIRRPPIRPPFYR]

- MIC [35]: ≥ 128 µM
- MIC [36]: 2 µM (≈ 4.93 µg/mL)
- MIC [37]: 4 µM (≈ 9.85 µg/mL)
- MIC [38]: ≥ 32 µM
- MIC [39]: 4 µM (≈ 9.85 µg/mL)
- MIC [40]: 16 µM (≈ 39.4 µg/mL)
- MIC [41]: ≥ 128 µM
- MIC [42]: 8 µM (≈ 19.7 µg/mL)
- MIC [43]: 8 µM (≈ 19.7 µg/mL)
- MIC [44]: ≥ 128 µM
Compound: CC[C@H](C)[C@H](NC(=O)CNC(=O)[C@H](CC(=O)O)NC(=O)[C@H](CCCN=C(N)N)NC(=O)[C@@H](NC(=O)[C@H](CC(N)=O)NC(=O)[C@H](CCCN=C(N)N)NC(=O)CNC(=O)[C@@H](NC(=O)[C@H](CCCCN)NC(=O)[C@H](CCC(=O)O)NC(=O)[C@@H](NC(=O)[C@H](CCCCN)NC(=O)[C@H](CCCCN)NC(=O)[C@H](C)NC(=O)[C@@H](NC(=O)[C@H](CCCCN)NC(=O)[C@H](C)NC(=O)[C@@H](N)CCCN=C(N)N)[C@@H](C)CC)[C@@H](C)CC)C(C)C)C(C)C)C(=O)N[C@H](C(=O)N[C@@H](CCCCN)C(=O)N[C@@H](C)C(N)=O)[C@@H](C)CC [RAKIAKKIEKVGRNVRDGIIKA]
